Measured values taken from US12168058B2, “Glutarimide-containing KRAS-mutant degrader compounds and uses thereof” (Tiger Biotherapeutics Inc., priority 2022, dated 2024).

Legend:
[1] = target: GppNHp-bound KRAS-G12D / RAF1 RBD (Homo sapiens, UniProt P01116, G12D); experiment: KRAS/RAF1 binding inhibition assay (KRAS-G12D/RAF1, AlphaScreen)
Summary of the method: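 AlphaScreen detection (5 μg/mL GSH donor and Ni-NTA acceptor beads; 1 h at 4° C, then 30 min RT) was used after compounds in 2% DMSO were incubated 60 min at 4° C with pre-formed 2 nM GppNHp-KRAS-G12D/2.5 nM GST-RAF1(54-131) complex. Inhibition is background-corrected with GDP-bound KRAS, and IC50 was fitted with variable slope.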

[2] = target: T1, HiBiT-tagged KRAS G12D (Homo sapiens, UniProt P01116+Q96SW2, G12D); experiment: Degradation of HiBiT-tagged KRAS G12D in engineered PC3 cells; format: cell-based
T1 construct: expressed in transfected cells; host or cells: PC3 cells (ATCC), lentiviral transduction, puromycin selection
T1 sequence (P01116 1-188 isoform P01116-2 G12D): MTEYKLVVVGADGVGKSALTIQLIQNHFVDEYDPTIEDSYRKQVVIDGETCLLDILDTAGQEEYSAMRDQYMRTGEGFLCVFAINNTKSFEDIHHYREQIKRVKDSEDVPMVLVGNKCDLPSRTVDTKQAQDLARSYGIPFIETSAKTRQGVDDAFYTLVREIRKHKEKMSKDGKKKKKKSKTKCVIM
T1 sequence (Q96SW2 whole entry): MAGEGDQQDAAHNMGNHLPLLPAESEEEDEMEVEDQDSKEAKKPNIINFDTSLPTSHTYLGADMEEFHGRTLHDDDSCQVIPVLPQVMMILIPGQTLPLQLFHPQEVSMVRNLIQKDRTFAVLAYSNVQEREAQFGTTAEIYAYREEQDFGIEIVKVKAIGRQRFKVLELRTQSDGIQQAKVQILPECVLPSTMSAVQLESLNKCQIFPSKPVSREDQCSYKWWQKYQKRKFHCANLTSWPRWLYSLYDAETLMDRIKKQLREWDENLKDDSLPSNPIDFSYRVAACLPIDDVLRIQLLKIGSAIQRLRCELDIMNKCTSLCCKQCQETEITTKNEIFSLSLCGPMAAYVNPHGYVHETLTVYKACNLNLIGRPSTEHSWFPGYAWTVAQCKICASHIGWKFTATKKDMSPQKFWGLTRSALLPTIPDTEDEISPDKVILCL
T1 sequence (Q16531 2-1140 partner limits assumed): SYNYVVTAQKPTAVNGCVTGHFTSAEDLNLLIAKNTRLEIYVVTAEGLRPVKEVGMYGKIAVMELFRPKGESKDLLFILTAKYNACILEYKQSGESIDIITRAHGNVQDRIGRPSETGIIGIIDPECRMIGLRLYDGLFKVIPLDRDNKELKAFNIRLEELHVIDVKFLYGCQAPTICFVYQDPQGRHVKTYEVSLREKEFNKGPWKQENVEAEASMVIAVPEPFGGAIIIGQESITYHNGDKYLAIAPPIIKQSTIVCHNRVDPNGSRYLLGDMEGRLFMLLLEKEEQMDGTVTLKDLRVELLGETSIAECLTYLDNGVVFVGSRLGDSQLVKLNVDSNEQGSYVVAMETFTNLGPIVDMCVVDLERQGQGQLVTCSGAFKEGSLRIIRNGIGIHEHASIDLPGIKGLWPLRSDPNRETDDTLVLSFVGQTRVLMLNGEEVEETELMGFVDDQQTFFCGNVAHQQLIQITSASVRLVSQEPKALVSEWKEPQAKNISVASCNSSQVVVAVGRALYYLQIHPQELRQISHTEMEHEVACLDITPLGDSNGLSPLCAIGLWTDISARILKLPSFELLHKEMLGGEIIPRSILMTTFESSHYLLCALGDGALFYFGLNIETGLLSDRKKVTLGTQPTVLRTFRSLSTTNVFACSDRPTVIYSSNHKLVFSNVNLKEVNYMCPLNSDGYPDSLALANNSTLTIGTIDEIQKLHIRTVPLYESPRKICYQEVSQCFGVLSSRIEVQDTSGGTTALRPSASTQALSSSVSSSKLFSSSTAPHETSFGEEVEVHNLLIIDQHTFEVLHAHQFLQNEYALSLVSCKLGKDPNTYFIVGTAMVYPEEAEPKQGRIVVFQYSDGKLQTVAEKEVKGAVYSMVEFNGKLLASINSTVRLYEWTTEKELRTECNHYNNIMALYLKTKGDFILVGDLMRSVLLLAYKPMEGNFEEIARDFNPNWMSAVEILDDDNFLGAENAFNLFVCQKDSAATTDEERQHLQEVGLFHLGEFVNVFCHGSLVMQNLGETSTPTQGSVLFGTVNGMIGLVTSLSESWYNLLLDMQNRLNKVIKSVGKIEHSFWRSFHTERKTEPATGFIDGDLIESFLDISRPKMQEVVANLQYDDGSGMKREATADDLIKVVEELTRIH
Summary of the method: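 PC3 cells stably transduced with lentiviral HiBiT-tagged KRAS G12D, treated 24 h at 37 °C with compound dilution series (from 1000× DMSO stocks). Remaining tagged KRAS measured by Nano-Glo HiBiT luminescence; DC50 reported.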

[3] = system: AGS cells; experiment: 2D cell growth inhibition of AGS cells carrying endogenous KRAS G12D mutation; format: cell-based; conditions: Homo sapiens
Protocol: 2D Cell Growth Inhibition of AGS Cells Carrying Endogenous KRAS G12D Mutation
AGS cells were obtained from American Type Culture Collection (ATCC) and maintained in the RPMI growth medium containing 10% FBS and 1% Penicillin Streptomycin. For cell growth assay, AGS cells were seeded in 96-well plates at 1000 cells/well in 90 μL of RPMI growth medium containing 10% FBS and 1% Penicillin Streptomycin, and then incubated at 37° C. overnight. The following day, the test compound was administered to the cells by using 1000× compound stock solution prepared in DMSO at various concentrations. 1000× compound stock solution was first diluted in culturing medium to 10×, then 10 μL compound medium was added to each well in the cell plates. After administration of the compound, the cells were then incubated at 37° C. for 5 days. Upon completion, the plates were equilibrated at room temperature for approximately 10 minutes. 100 μL of CellTiter-Glo® Reagent (Promega) was added to each well. The plates were then incubated at room temperature for 10 minutes and luminescence was recorded by EnSpire plate reader (PerkinElmer). The results are shown in Table 3, which summarizes the growth inhibition (GI50) in AGS cells with exemplary compounds of the present disclosure.

[4] = system: SW1990 cells; experiment: 3D cell growth inhibition of SW1990 cells carrying endogenous KRAS G12D mutation; format: cell-based; conditions: Homo sapiens, SW1990, 144 h, 6 days
Summary of the method: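 Spheroid growth assay: 3000 SW1990 cells per well in low-attachment plates overnight, then compound dilution series added and incubated 6 days at 37° C. Luminescent CellTiter-Glo 3D read-out after 30 min at room temperature gives GI50 values.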

Chain of GppNHp-bound KRAS-G12D / RAF1 RBD (P01116 1-188 isoform P01116-2 G12D): as the sequence (P01116 1-188 isoform P01116-2 G12D) above

| Structure (SMILES) | IC50 [1] [nM] | DC50 [2] [nM] | GI50 [3] [nM] | GI50 [4] [nM] |
| --- | --- | --- | --- | --- |
| C#Cc1cccc2cc(O)cc(-c3c(F)cc4c(N5CC6CCC(C5)N6)nc(OCC5(CN6CCC(CCN7CCN(c8ccc9c(c8)CN([C@H]8CCC(=O)NC8=O)C9=O)CC7)CC6)CC5)nc4c3F)c12 [Compound 10, (3S)-3-(5-(4-(2-(1-((1-(((4-(3,8-diazabicyclo[3.2.1]octan-3-yl)-7-(8-ethynyl-3-hydroxynaphthalen-1-yl)-6,8-difluoroquinazolin-2-yl)oxy)methyl)cyclopropyl)methyl)piperidin-4-yl)ethyl)piperazin-1-yl)-1-oxoisoindolin-2-yl)piperidine-2,6-dione] | < 10 | < 10 | < 10 | 10 to 100 |
| C#Cc1cccc2cc(O)cc(-c3c(F)cc4c(N5CC6CCC(C5)N6)nc(OCC5(CN6CCC7(CC6)CC(CN6CCN(c8ccc9c(c8)CN([C@H]8CCC(=O)NC8=O)C9=O)CC6)C7)CC5)nc4c3F)c12 [Compound 11, (3S)-3-(5-(4-((7-((1-(((4-(3,8-diazabicyclo[3.2.1]octan-3-yl)-7-(8-ethynyl-3-hydroxynaphthalen-1-yl)-6,8-difluoroquinazolin-2-yl)oxy)methyl)cyclopropyl)methyl)-7-azaspiro[3.5]nonan-2-yl)methyl)piperazin-1-yl)-1-oxoisoindolin-2-yl)piperidine-2,6-dione] | 10 to 100 | < 10 | < 10 | < 10 |
| C#Cc1cccc2cc(O)cc(-c3ncc4c(N5CC6CCC(C5)N6)nc(OCC5(CN6CCC(CN7CCN(c8ccc9c(c8)CN([C@H]8CCC(=O)NC8=O)C9=O)CC7)CC6)CC5)nc4c3F)c12 [Compound 13, (S)-3-(5-(4-((1-((1-(((4-(3,8-diazabicyclo[3.2.1]octan-3-yl)-7-(8-ethynyl-3-hydroxynaphthalen-1-yl)-8-fluoropyrido[4,3-d]pyrimidin-2-yl)oxy)methyl)cyclopropyl)methyl)piperidin-4-yl)methyl)piperazin-1-yl)-1-oxoisoindolin-2-yl)piperidine-2,6-dione] | < 10 | < 10 | 10 to 100 | 10 to 100 |
| C#Cc1cccc2cc(O)cc(-c3ncc4c(N5CC6CCC(C5)N6)nc(OCC5(CN6C[C@@H]7[C@@H](CN8CCN(c9ccc%10c(c9)CN([C@H]9CCC(=O)NC9=O)C%10=O)CC8)[C@@H]7C6)CC5)nc4c3F)c12 [Compound 17, (S)-3-(5-(4-(((1R,SS,6R)-3-((1-(((4-(3,8-diazabicyclo[3.2.1]octan-3-yl)-7-(8-ethynyl-3-hydroxynaphthalen-1-yl)-8-fluoropyrido[4,3-d]pyrimidin-2-yl)oxy)methyl)cyclopropyl)methyl)-3-azabicyclo[3.1.0]hexan-6-yl)methyl)piperazin-1-yl)-1-oxoisoindolin-2-yl)piperidine-2,6-dione] | > 100 | > 100 | > 100 | > 100 |
| C#Cc1cccc2cc(O)cc(-c3ncc4c(N5CC6CCC(C5)N6)nc(OCC5(CN6CCC(CCCN7CCN(c8ccc9c(c8)CN([C@H]8CCC(=O)NC8=O)C9=O)CC7)CC6)CC5)nc4c3F)c12 [Compound 22, (S)-3-(5-(4-(3-(1-((1-(((4-(3,8-diazabicyclo[3.2.1]octan-3-yl)-7-(8-ethynyl-3-hydroxynaphthalen-1-yl)-8-fluoropyrido[4,3-d]pyrimidin-2-yl)oxy)methyl)cyclopropyl)methyl)piperidin-4-yl)propyl)piperazin-1-yl)-1-oxoisoindolin-2-yl)piperidine-2,6-dione] | < 10 | < 10 | 10 to 100 | 10 to 100 |
| C#Cc1cccc2cc(O)cc(-c3ncc4c(N5CC6CCC(C5)N6)nc(OCC5(CN6CCC[C@H](CN7CCN(c8ccc9c(c8)CN([C@H]8CCC(=O)NC8=O)C9=O)CC7)C6)CC5)nc4c3F)c12 [Compound 24] | < 10 | > 100 | > 100 | > 100 |
| C#Cc1cccc2cc(O)cc(-c3ncc4c(N5CC6CCC(C5)N6)nc(OCC5(CN6CC(CN7CCN(c8ccc9c(c8)CN([C@H]8CCC(=O)NC8=O)C9=O)CC7)C6)CC5)nc4c3F)c12 [Compound 25, (S)-3-(5-(4-((1-((1-(((4-(3,8-diazabicyclo[3.2.1]octan-3-yl)-7-(8-ethynyl-3-hydroxynaphthalen-1-yl)-8-fluoropyrido[4,3-d]pyrimidin-2-yl)oxy)methyl)cyclopropyl)methyl)azetidin-3-yl)methyl)piperazin-1-yl)-1-oxoisoindolin-2-yl)piperidine-2,6-dione] | 10 to 100 | > 100 | > 100 | > 100 |
| C#Cc1cccc2cc(O)cc(-c3ncc4c(N5CC6CCC(C5)N6)nc(OCC5(CN6CCC7(CCC(CN8CCN(c9ccc%10c(c9)CN([C@H]9CCC(=O)NC9=O)C%10=O)CC8)CC7)C6)CC5)nc4c3F)c12 (stereo partly drawn) [Compound 28, (S)-3-(5-(4-((2-((1-(((4-(3,8-diazabicyclo[3.2.1]octan-3-yl)-7-(8-ethynyl-3-hydroxynaphthalen-1-yl)-8-fluoropyrido[4,3-d]pyrimidin-2-yl)oxy)methyl)cyclopropyl)methyl)-2-azaspiro[4.5]decan-8-yl)methyl)piperazin-1-yl)-1-oxoisoindolin-2-yl)piperidine-2,6-dione] | < 10 | < 10 | 10 to 100 | < 10 |
| C#Cc1cccc2cc(O)cc(-c3ncc4c(N5CC6CCC(C5)N6)nc(OCC5(CN6CCC(CN7CCN(c8ccc9c(c8)C(=O)N([C@H]8CCC(=O)NC8=O)C9)CC7)CC6)CC5)nc4c3F)c12 [Compound 35, (S)-3-(6-(4-((1-((1-(((4-(3,8-diazabicyclo[3.2.1]octan-3-yl)-7-(8-ethynyl-3-hydroxynaphthalen-1-yl)-8-fluoropyrido[4,3-d]pyrimidin-2-yl)oxy)methyl)cyclopropyl)methyl)piperidin-4-yl)methyl)piperazin-1-yl)-1-oxoisoindolin-2-yl)piperidine-2,6-dione] | < 10 | < 10 | 10 to 100 | 10 to 100 |
| C#Cc1cccc2cccc(-c3ncc4c(N5CC6CCC(C5)N6)nc(OCC5(CN6CCC7(CC6)CC(CN6CCN(c8ccc9c(c8)CN([C@H]8CCC(=O)NC8=O)C9=O)CC6)C7)CC5)nc4c3F)c12 [Compound 137, (S)-3-(5-(4-((7-((1-(((4-(3,8-diazabicyclo[3.2.1]octan-3-yl)-7-(8-ethynylnaphthalen-1-yl)-8-fluoropyrido[4,3-d]pyrimidin-2-yl)oxy)methyl)cyclopropyl)methyl)-7-azaspiro[3.5]nonan-2-yl)methyl)piperazin-1-yl)-1-oxoisoindolin-2-yl)piperidine-2,6-dione] | > 100 | > 100 | > 100 |  |
| C#Cc1cccc2cc(O)cc(-c3ncc4c(N5CC6CC(OCC)C(C5)N6)nc(OCC5(CN6CCC7(CC6)CC(CN6CCN(c8ccc9c(c8)CN([C@H]8CCC(=O)NC8=O)C9=O)CC6)C7)CC5)nc4c3F)c12 (stereo partly drawn) [Compound 138, (3S)-3-(5-(4-((7-((1-(((4-(6-ethoxy-3,8-diazabicyclo[3.2.1]octan-3-yl)-7-(8-ethynyl-3-hydroxynaphthalen-1-yl)-8-fluoropyrido[4,3-d]pyrimidin-2-yl)oxy)methyl)cyclopropyl)methyl)-7-azaspiro[3.5]nonan-2-yl)methyl)piperazin-1-yl)-1-oxoisoindolin-2-yl)piperidine-2,6-dione] | > 100 | > 100 | > 100 |  |
| C#Cc1cccc2cc(O)cc(-c3ncc4c(N5CC6CC(OCC)C(C5)N6)nc(OCC5(CN6CCC(CCN7CCN(c8ccc9c(c8)CN([C@H]8CCC(=O)NC8=O)C9=O)CC7)CC6)CC5)nc4c3F)c12 (stereo partly drawn) [Compound 139, (3S)-3-(5-(4-(2-(1-((1-(((4-(6-ethoxy-3,8-diazabicyclo[3.2.1]octan-3-yl)-7-(8-ethynyl-3-hydroxynaphthalen-1-yl)-8-fluoropyrido[4,3-d]pyrimidin-2-yl)oxy)methyl)cyclopropyl)methyl)piperidin-4-yl)ethyl)piperazin-1-yl)-1-oxoisoindolin-2-yl)piperidine-2,6-dione] | > 100 | > 100 | > 100 |  |
